Data reported in the CheMixHub viscosity set.

Experiment: xn = mol fraction of the nth substance listed

Clc1cccc2ccccc12 + COc1ccccc1
viscosity [mPa·s], 101.33 kPa
Conditions | x1 = 0.0985 | x1 = 0.1969 | x1 = 0.2977 | x1 = 0.3974 | x1 = 0.4997 | x1 = 0.5959 | x1 = 0.6962 | x1 = 0.7827 | x1 = 0.8985
298.15 K | 1.025 | 1.116 | 1.262 | 1.409 | 1.568 | 1.72 | 1.896 | 2.096 | 2.425
303.15 K | 0.946 | 1.045 | 1.159 | 1.291 | 1.43 | 1.566 | 1.724 | 1.891 | 2.18
308.15 K | 0.878 | 0.966 | 1.069 | 1.185 | 1.312 | 1.431 | 1.57 | 1.717 | 1.973

Clc1ccccc1 + COc1ccccc1
Conditions | viscosity [mPa·s]
293.15 K, 101.33 kPa, x2 = 0.0976 | 0.8705
293.15 K, 101.33 kPa, x2 = 0.1922 | 0.8967
293.15 K, 101.33 kPa, x2 = 0.2893 | 0.9253
293.15 K, 101.33 kPa, x2 = 0.3873 | 0.9512
293.15 K, 101.33 kPa, x2 = 0.493 | 0.9898
293.15 K, 101.33 kPa, x2 = 0.5987 | 0.967
293.15 K, 101.33 kPa, x2 = 0.7059 | 1.007
293.15 K, 101.33 kPa, x2 = 0.7916 | 1.072
293.15 K, 101.33 kPa, x2 = 0.905 | 1.107
298.15 K, 101 kPa, x2 = 0.0994 | 0.7921
298.15 K, 101 kPa, x2 = 0.2 | 0.8143
298.15 K, 101 kPa, x2 = 0.2957 | 0.8336
298.15 K, 101 kPa, x2 = 0.3982 | 0.8576
298.15 K, 101 kPa, x2 = 0.5028 | 0.88
298.15 K, 101 kPa, x2 = 0.6002 | 0.9024
298.15 K, 101 kPa, x2 = 0.7006 | 0.9275
298.15 K, 101 kPa, x2 = 0.7995 | 0.9474
298.15 K, 101 kPa, x2 = 0.8997 | 0.9779
298.15 K, 101.33 kPa, x2 = 0.0976 | 0.8217
298.15 K, 101.33 kPa, x2 = 0.1922 | 0.8474
298.15 K, 101.33 kPa, x2 = 0.2893 | 0.8642
298.15 K, 101.33 kPa, x2 = 0.3873 | 0.8824
298.15 K, 101.33 kPa, x2 = 0.493 | 0.9356
298.15 K, 101.33 kPa, x2 = 0.5987 | 0.9051
298.15 K, 101.33 kPa, x2 = 0.7059 | 0.9242
298.15 K, 101.33 kPa, x2 = 0.7916 | 0.9965
298.15 K, 101.33 kPa, x2 = 0.905 | 1.037
303.15 K, 101 kPa, x2 = 0.0864 | 0.7392
303.15 K, 101 kPa, x2 = 0.0994 | 0.7495
303.15 K, 101 kPa, x2 = 0.1933 | 0.7667
303.15 K, 101 kPa, x2 = 0.2 | 0.7657
303.15 K, 101 kPa, x2 = 0.2875 | 0.79
303.15 K, 101 kPa, x2 = 0.2957 | 0.785
303.15 K, 101 kPa, x2 = 0.3805 | 0.8112
303.15 K, 101 kPa, x2 = 0.3982 | 0.8026
303.15 K, 101 kPa, x2 = 0.4904 | 0.8348
303.15 K, 101 kPa, x2 = 0.5028 | 0.8232
303.15 K, 101 kPa, x2 = 0.5826 | 0.8538
303.15 K, 101 kPa, x2 = 0.6002 | 0.8438
303.15 K, 101 kPa, x2 = 0.6914 | 0.8755
303.15 K, 101 kPa, x2 = 0.7006 | 0.8635
303.15 K, 101 kPa, x2 = 0.779 | 0.8922
303.15 K, 101 kPa, x2 = 0.7995 | 0.8808
303.15 K, 101 kPa, x2 = 0.8905 | 0.9132
303.15 K, 101 kPa, x2 = 0.8997 | 0.9091
308.15 K, 101 kPa, x2 = 0.0994 | 0.7047
308.15 K, 101 kPa, x2 = 0.2 | 0.7212
308.15 K, 101 kPa, x2 = 0.2957 | 0.7354
308.15 K, 101 kPa, x2 = 0.3982 | 0.7535
308.15 K, 101 kPa, x2 = 0.5028 | 0.7693
308.15 K, 101 kPa, x2 = 0.6002 | 0.7866
308.15 K, 101 kPa, x2 = 0.7006 | 0.8038
308.15 K, 101 kPa, x2 = 0.7995 | 0.8201
308.15 K, 101 kPa, x2 = 0.8997 | 0.8444
313.15 K, 101 kPa, x2 = 0.0994 | 0.6642
313.15 K, 101 kPa, x2 = 0.2 | 0.6768
313.15 K, 101 kPa, x2 = 0.2957 | 0.6921
313.15 K, 101 kPa, x2 = 0.3982 | 0.7064
313.15 K, 101 kPa, x2 = 0.5028 | 0.7227
313.15 K, 101 kPa, x2 = 0.6002 | 0.7366
313.15 K, 101 kPa, x2 = 0.7006 | 0.7511
313.15 K, 101 kPa, x2 = 0.7995 | 0.7649
313.15 K, 101 kPa, x2 = 0.8997 | 0.7855

CCCCn1cc[n+](C)c1.F[P-](F)(F)(F)(F)F + CS(C)=O
Conditions | viscosity [mPa·s]
298.15 K, 101 kPa, x1 = 0.7812 | 117.5

Clc1ccccc1 + CS(C)=O
viscosity [mPa·s]
Conditions | 298.15 K | 299 K | 308.15 K | 318.15 K
101 kPa, x2 = 0.0871 | – | 1.227 | – | –
101 kPa, x2 = 0.2483 | – | 1.401 | – | –
101 kPa, x2 = 0.462 | – | 1.715 | – | –
101 kPa, x2 = 0.5887 | – | 2.067 | – | –
101 kPa, x2 = 0.7046 | – | 2.357 | – | –
101 kPa, x2 = 0.8612 | – | 2.819 | – | –
101.3 kPa, x1 = 0.035 | 1.865 | – | 1.559 | 1.273
101.3 kPa, x1 = 0.072 | 1.803 | – | 1.474 | 1.224
101.3 kPa, x1 = 0.148 | 1.682 | – | 1.39 | 1.142
101.3 kPa, x1 = 0.23 | 1.564 | – | 1.29 | 1.098
101.3 kPa, x1 = 0.317 | 1.421 | – | 1.17 | 1.021
101.3 kPa, x1 = 0.411 | 1.299 | – | 1.077 | 0.927
101.3 kPa, x1 = 0.511 | 1.193 | – | 0.986 | 0.865
101.3 kPa, x1 = 0.619 | 1.085 | – | 0.929 | 0.833
101.3 kPa, x1 = 0.736 | 0.966 | – | 0.823 | 0.742
101.3 kPa, x1 = 0.863 | 0.866 | – | 0.733 | 0.668
101.3 kPa, x1 = 0.936 | 0.826 | – | 0.704 | 0.643
101.33 kPa, x2 = 0.1 | 0.826 | – | 0.738 | 0.656
101.33 kPa, x2 = 0.2 | 0.905 | – | 0.807 | 0.709
101.33 kPa, x2 = 0.3 | 0.993 | – | 0.88 | 0.769
101.33 kPa, x2 = 0.4 | 1.094 | – | 0.958 | 0.832
101.33 kPa, x2 = 0.5 | 1.206 | – | 1.043 | 0.902
101.33 kPa, x2 = 0.6 | 1.329 | – | 1.136 | 0.981
101.33 kPa, x2 = 0.7 | 1.466 | – | 1.239 | 1.068
101.33 kPa, x2 = 0.8 | 1.616 | – | 1.361 | 1.165
101.33 kPa, x2 = 0.9 | 1.784 | – | 1.5 | 1.274
